Consider four compounds from patent publication EP4494656A1 (priority 2023, dated 2025).

Numbered stars: 1 amine (or outer) side, 2 acyl side, 3 side chain; on linkers, the order of the positions; unused ones are H or OH. Bridge positions count the residues as written; N and C are the ends. Square brackets hold non-standard residues; d marks the D form. Peptide text beside a SMILES is read from it. * marks the point of attachment. Adda = CO[C@@H](Cc1ccccc1)[C@@H](C)/C=C(C)/C=C/[C@H](N[*:1])[C@H](C)C(=O)[*:2]; dAsp(3S-Me) = C[C@H](C(=O)[*:3])[C@@H](N[*:1])C(=O)[*:2]; d(γGlu) = O=C(O)[C@@H](CCC(=O)[*:2])N[*:1]; NMeDha = C=C(NC)C(=O)O; Propargyl = C#CC* Bounds are passed on as bounds.

For data set [1], the target named is type 1 protein phosphatase. To be noted: cited from earlier work.
For data set [2], the target named is type 2A protein phosphatase. To be noted: cited from earlier work.
In another data set the test system is OATP1B3. The data set is described as follows: in vitro. To be noted: human.
The next data set relates to OATP1B1. The data set can be described thus: in vitro. The settings on record: human.
Data set [3] concerns the target protein phosphatase-1 catalytic subunit (a-Isoform from rabbit, Sigma-Aldrich) (Oryctolagus cuniculus, UniProt P62139).

Sequence of protein phosphatase-1 catalytic subunit (a-Isoform from rabbit, Sigma-Aldrich) (P62139 whole entry, looked up, canonical isoform): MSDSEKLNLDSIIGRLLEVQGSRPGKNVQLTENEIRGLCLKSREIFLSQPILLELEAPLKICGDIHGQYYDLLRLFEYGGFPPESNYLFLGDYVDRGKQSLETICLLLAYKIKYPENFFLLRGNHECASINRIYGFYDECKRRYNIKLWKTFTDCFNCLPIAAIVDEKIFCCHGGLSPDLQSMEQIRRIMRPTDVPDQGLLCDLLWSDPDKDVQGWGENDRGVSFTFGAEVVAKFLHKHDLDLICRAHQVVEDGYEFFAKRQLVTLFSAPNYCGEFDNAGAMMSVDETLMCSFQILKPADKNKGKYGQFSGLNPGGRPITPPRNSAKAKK

In the case of `C=C1C(=O)N[C@H](C)C(=O)N[C@@H](CC(C)C)C(=O)N[C@@H](C(=O)O)[C@H](C)C(=O)N[C@@H](CCCNC(=N)N)C(=O)N[C@@H](/C=C/C(C)=C/[C@H](C)[C@H](Cc2ccccc2)OC)[C@H](C)C(=O)N[C@@H](C(=O)O)CCC(=O)N1C` [MC-LR, microcystin-LR, reference compound] (R[Adda][d(γGlu)][NMeDha][dA]L[dAsp(3S-Me)]-OH; lactam N-7), the IC50 is 0.03 nM in data set [1], 0.04 nM in data set [2], 17.1 ± 2.1 nM with HEK293 OATP1B1+ (read-out: IC50_OATP1B1 ± SE) and 7.9 ± 1.7 nM with HEK293 OATP1B3+ (read-out: IC50_OATP1B3 ± SE). In addition, in the data set on HEK293 OATP1B1+, the “Ratio of IC50_OATP1B1/ IC50_PPI” value came to 6.3. For the same compound, the “Ratio of IC50_OATP1B3/ IC50_PPI” value in the data set on HEK293 OATP1B3+ was determined as 2.9.
For `C#CCOc1ccc(C[C@@H]2NC(=O)[C@@H](C)NC(=O)C(=C)N(C)C(=O)CC[C@H](C(=O)O)NC(=O)[C@@H](C)[C@H](/C=C/C(C)=C/[C@H](C)[C@H](Cc3ccccc3)OC)NC(=O)[C@H](CCCNC(=N)N)NC(=O)[C@@H](C)[C@H](C(=O)O)NC2=O)cc1` [MC-PrgTyr-Arg, cyclo(D-Ala-PrgTyr-D-MeAsp-Arg-Adda-D-Glu-Mdha), reference compound] (R[Adda][d(γGlu)][NMeDha][dA]Y(Propargyl)[dAsp(3S-Me)]-OH; lactam N-7), the IC50 in the data set on OATP1B3 turned out to be 40.4 ± 36.6 nM; in the data set on OATP1B1, 82.2 ± 4.5 nM.
For `C=C1C(=O)N[C@H](C)C(=O)N[C@@H](Cc2ccc(OCc3cn(CC(=O)N4CCN(C(=O)Cn5cc(COc6ccc(C[C@@H]7NC(=O)[C@@H](C)NC(=O)C(=C)N(C)C(=O)CC[C@H](C(=O)O)NC(=O)[C@@H](C)[C@H](/C=C/C(C)=C/[C@H](C)[C@H](Cc8ccccc8)OC)NC(=O)[C@H](CCCNC(=N)N)NC(=O)[C@@H](C)[C@H](C(=O)O)NC7=O)cc6)nn5)CC4)nn3)cc2)C(=O)N[C@@H](C(=O)O)[C@H](C)C(=O)N[C@@H](CCCNC(=N)N)C(=O)N[C@@H](/C=C/C(C)=C/[C@H](C)[C@H](Cc2ccccc2)OC)[C@H](C)C(=O)N[C@@H](C(=O)O)CCC(=O)N1C` [MC-PrgTyr-Arg-Dimer-1], in the data set with OATP1B3, the IC50 is 1060 ± 302 nM. Further, in data set [3], the “lower IC50_PPI compared to the IC50_PPI of the MC-LR reference cytotoxin” value is on record as “about 10 fold” and the “lower IC50_PPI compared to the IC50_PPI of the corresponding MC-PrgTyr-Arg monomer” value is listed as “more than 20 fold”. Moreover, in the data set with HEK293 OATP1B1+, the “increase of IC50_OATP1B1 compared to the corresponding MC-PrgTyr-Arg monomer” value was determined as 24 fold and the “increase of IC50_OATP1B1 in comparison to MC-LR” value was “more than 116 fold”. In the data set with HEK293 OATP1B3+, the “increase of IC50_OATP1B3 compared to the MC-PrgTyr-Arg monomer” value is 26 fold and the “increase of IC50_OATP1B3 in comparison to MC-LR” value is on record as 134 fold. Also, in the data set with OATP1B1, the IC50 was found to be 2000 ± 711 nM.
`C=C1C(=O)N[C@H](C)C(=O)N[C@@H](Cc2ccc(OCc3cn(CC(=O)N4CCN(C(=O)[C@H](CCCCN)n5cc(COc6ccc(C[C@@H]7NC(=O)[C@@H](C)NC(=O)C(=C)N(C)C(=O)CC[C@H](C(=O)O)NC(=O)[C@@H](C)[C@H](/C=C/C(C)=C/[C@H](C)[C@H](Cc8ccccc8)OC)NC(=O)[C@H](CCCNC(=N)N)NC(=O)[C@@H](C)[C@H](C(=O)O)NC7=O)cc6)nn5)CC4)nn3)cc2)C(=O)N[C@@H](C(=O)O)[C@H](C)C(=O)N[C@@H](CCCNC(=N)N)C(=O)N[C@@H](/C=C/C(C)=C/[C@H](C)[C@H](Cc2ccccc2)OC)[C@H](C)C(=O)N[C@@H](C(=O)O)CCC(=O)N1C` [MC-PrgTyr-Arg-Dimer-2] displayed an IC50 with OATP1B3 of 1850 ± 309 nM. Also, in data set [3], the “lower IC50_PPI compared to the IC50_PPI of the MC-LR reference cytotoxin” value is listed as “about 16 fold” and the “lower IC50_PPI compared to the IC50_PPI of the corresponding MC-PrgTyr-Arg monomer” value is listed as “more than 50 fold”. In the data set with HEK293 OATP1B1+, the “increase of IC50_OATP1B1 compared to the corresponding MC-PrgTyr-Arg monomer” value is “more than 36 fold” and the “increase of IC50_OATP1B1 in comparison to MC-LR” value is listed as “more than 175 fold”. For the same compound, in the data set with HEK293 OATP1B3+, the “increase of IC50_OATP1B3 compared to the MC-PrgTyr-Arg monomer” value is 45 fold and the “increase of IC50_OATP1B3 in comparison to MC-LR” value turned out to be 234 fold. Moreover, the IC50 with OATP1B1 is more than 3000 nM.
